Measured values: paper PMC9757636, “The effectiveness of newly synthesized quaternary ammonium salts differing in chain length and type of counterion against priority human pathogens” (Scientific Reports, 2022)
Marks after values point to notes of the source that are not given here.

Assays:
[1] = test system: S. epidermidis ATCC 35984; experiment: MIC/MBC microdilution; format: cell-based, Staphylococcus epidermidis; details: for Minimal bactericidal concentration (*MBC): 99.9% reduction; for Minimal inhibitory concentration (MIC): 24 h, 37 °C, >90% growth inhibition
Procedure: (§1) The minimum inhibitory concentration (MIC) of the tested monomeric QAS was performed using the microdilution method according to CLSI recommendation (M27-A3). Concentrations from 10 to 1280 µM were analyzed. Strains were incubated with or without compounds (growth control) for 24 h at 37 °C. Three independent replicates were performed. The MIC value was determined spectrophotometrically and the concentration that inhibited more than 90% of growth was determined. Optical density was measured at λ = 590 nm using a 96-well microplate reader (Bio-Rad Universal Hood II).
(§2) To determine the minimum bactericidal concentration (MBC), 10 µL of bacterial suspension incubated with monomeric QAS (MIC concentration and two times higher) was transferred to plates with LB (1% tryptone, 1% yeast extract, 0.5% NaCl) medium. […] The concentration that reduced 99.9% of microbial growth was determined as MBC[54].

[2] = test system: S. epidermidis B374; experiment: MIC/MBC microdilution; format: cell-based, Staphylococcus epidermidis; details: S. epidermidis B374
Procedure: as §1, §2

[3] = test system: S. epidermidis SI8; experiment: MIC/MBC microdilution; format: cell-based, Staphylococcus epidermidis; details: for Minimal bactericidal concentration (*MBC): 99.9% reduction; for Minimal inhibitory concentration (MIC): 24 h, 37 °C, >90% growth inhibition
Procedure: as §1, §2

[4] = test system: S. aureus ATCC 6538; experiment: MIC/MBC microdilution; format: cell-based, Staphylococcus aureus; details: S. aureus ATCC 6538; for Minimal bactericidal concentration (*MBC): 99.9% reduction; for Minimal inhibitory concentration (MIC): 24 h, 37 °C, >90% growth inhibition
Procedure: as §1, §2

[5] = test system: S. aureus MRSA R98; experiment: MIC/MBC microdilution; format: cell-based, Staphylococcus aureus; details: for Minimal bactericidal concentration (*MBC): 99.9% reduction; for Minimal inhibitory concentration (MIC): 24 h, 37 °C, >90% growth inhibition
Procedure: as §1, §2

[6] = test system: E. coli ATCC 11229; experiment: MIC/MBC microdilution; format: cell-based, Escherichia coli; details: E. coli ATCC 11229; for Minimal bactericidal concentration (*MBC): 99.9% reduction; for Minimal inhibitory concentration (MIC): 24 h, 37 °C, >90% growth inhibition
Procedure: as §1, §2

[7] = test system: E. coli H64; experiment: MIC/MBC microdilution; format: cell-based, Escherichia coli; details: E. coli H64; for Minimal bactericidal concentration (*MBC): 99.9% reduction
Procedure: as §1, §2

[8] = test system: P. aeruginosa ATCC 27853; experiment: MIC/MBC microdilution; format: cell-based, Pseudomonas aeruginosa; details: P. aeruginosa ATCC 27853; for Minimal bactericidal concentration (*MBC): 99.9% reduction; for Minimal inhibitory concentration (MIC): 24 h, 37 °C, >90% growth inhibition
Procedure: as §1, §2

[9] = test system: P. aeruginosa PAO1; experiment: MIC/MBC microdilution; format: cell-based, Pseudomonas aeruginosa; details: for Minimal bactericidal concentration (*MBC): 99.9% reduction; for Minimal inhibitory concentration (MIC): 24 h, 37 °C, >90% growth inhibition
Procedure: as §1, §2

[10] = Critical micelle concentration by conductometric measurements; format: physicochemical; details: aqueous solution, 25 °C
Procedure: Values of critical micelle concentrations (CMC) of cationic surfactants were measured conductrometrically. N5721 conductometer (Tel-Eko Projekt sp z o.o., Poland), equipped with N5981 probe, was calibrated using 0.1 M, 0.01 M and 0.001 M KCl aqueous solutions (conductivities equal to 1.287 S/m, 0.141 S/m and 0.0147 S/m, respectively) and used without temperature compensation mode (constant temperature 25 °C was kept during all calibration procedures and measurements). Values of specific conductivities of at least 15 different concentrations for each surfactant were measured and plotted versus concentration; the discontinuity point was used to determine critical micelle concentration.

[11] = test system: P. aeruginosa PAO1; experiment: Adhesion to glass; format: cell-based, Pseudomonas aeruginosa; details: concentration not given
[12] = test system: Salmonella typhimurium TA100; experiment: Mutagenicity (Ames test); format: cell-based; details: for Number of colonies: ± SD
Procedure: (§3) Two reference strains of Salmonella Typhimurium TA98 and Salmonella Typhimurium TA100, deficient in histidine synthesis, were used for this study according to the method proposed by Ames et al. with modifications. […] The mixture was mixed and poured onto a Davis minimal medium plate. The mixture without the test compound was used as a negative control. The positive control was a mixture of bacterial culture, biotin-histidine solution, and sodium azide (at a concentration of 15 μg/mL for strain TA100) or acriflavine (at a concentration of 100 μg/mL for strain TA98). Plates were incubated for 48 h at 37 °C, and then colonies were counted. The mutagenicity ratio (MR), the ratio of the number of revertants grown in the presence of the test compound to the number of spontaneously occurring revertants (negative control), was calculated. A mutagenic ratio equal to or greater than 1.7 indicates the mutagenic potential of the tested compounds. The study was performed in three times.

[13] = test system: Salmonella typhimurium TA98; experiment: Mutagenicity (Ames test); format: cell-based; details: for Number of colonies: ± SD
Procedure: as §3

[14] = test system: S. epidermidis B374; experiment: Adhesion to polystyrene plate; format: cell-based, Staphylococcus epidermidis; details: 1280 µM
Procedure: Adhesion analysis to polystyrene surfaces was determined according to the method of Rodrigues et al. with modifications. Polystyrene 96-well plates were incubated with the respective compound concentrations (10–1280 µM) for 4 h at 37 °C with 100 rpm shaking. The plates were then washed with miliQ and inoculated with 100 µL of bacterial suspension (OD = 0.4–0.6). Plates were incubated for 6 h at 37 °C with 100 rpm shaking. Wells were rinsed and fixed for 20 min at 60 °C. They were then […] with 0.1% crystal violet solution for 5 min. The wells were washed with miliQ until the unfixed dye was completely eluted. The absorbance at λ = 590 nm was measured using a reader (Bio-Rad Universal Hood II). The positive control was a surface not treated with QAS. Three independent trials were performed.

[15] = 24 h, 37 °C, >90% growth inhibition
[16] = 24 h, 37 °C, >90% growth inhibition, read-out: Minimal inhibitory concentration (MIC)

| Compound | Minimal bactericidal concentration (*MBC) [1] | Minimal inhibitory concentration (MIC) [1] | Minimal bactericidal concentration (*MBC) [3] | Minimal inhibitory concentration (MIC) [3] | Minimal bactericidal concentration (*MBC) [4] | Minimal inhibitory concentration (MIC) [4] | Minimal bactericidal concentration (*MBC) [5] | Minimal inhibitory concentration (MIC) [5] | Minimal bactericidal concentration (*MBC) [6] | Minimal inhibitory concentration (MIC) [6] | Minimal bactericidal concentration (*MBC) [7] | Minimal inhibitory concentration (MIC) [7, 15] | Minimal bactericidal concentration (*MBC) [8] | Minimal inhibitory concentration (MIC) [8] | Minimal bactericidal concentration (*MBC) [9] | Minimal inhibitory concentration (MIC) [9] | CMC [10] [mol/L] | Mutagenicity index ([12]; ¼ MIC) | Number of colonies ([12]; ¼ MIC) | Mutagenicity index ([12]; ½ MIC) | further results |
| --- | --- | --- | --- | --- | --- | --- | --- | --- | --- | --- | --- | --- | --- | --- | --- | --- | --- | --- | --- | --- | --- |
| CCCCCCCCCCCC(=O)N(C)CCC[N+](C)(C)C.[Br-] [BrC12] | 640 *640 µM | 640 *640 µM | 640 *640 µM | 640 *640 µM | 1280 *1280 µM | 1280 *1280 µM | 640 *640 µM | 640 *640 µM | 1280 *1280 µM | 1280 *1280 µM | 1280 *1280 µM | 1280 *1280 µM | 1280 *1280 µM | 1280 *1280 µM | > 1280 * > 1280 µM | > 1280 * > 1280 µM | 0.0086 | 1.41 | 179.3 ± 13.9 | 1.15 | Minimal bactericidal concentration (*MBC) ([2]; 99.9% reduction): 640 *640 µM; Minimal inhibitory concentration (MIC) [2, 15]: 640 *640 µM; reduction of adhesion to glass [11]: approximately 20%; mutagenicity index (MR) ([12]; base pair substitution type mutations, MR >= 1.7 indicates mutagenic potential): < 1.7; Number of colonies ([12]; ½ MIC): 146 ± 18.5; mutagenicity index (MR) ([13]; reading frame shift type mutation, MR >= 1.7 indicates mutagenic potential): above 1.7; Mutagenicity index ([13]; ¼ MIC): 0.78; Number of colonies ([13]; ¼ MIC): 20 ± 1.4; Mutagenicity index ([13]; ½ MIC): 1.98; Number of colonies ([13]; ½ MIC): 50.5 ± 6.4 |
| CCCCCCCCCCCCCC(=O)N(C)CCC[N+](C)(C)C.[Br-] [BrC14] | 160 *160 µM | 160 *160 µM | 160 *160 µM | 160 *160 µM | 320 *320 µM | 320 *320 µM | 320 *320 µM | 320 *320 µM | > 1280 * > 1280 µM | > 1280 * > 1280 µM | 320 *320 µM | 320 *320 µM | 1280 *1280 µM | 1280 *1280 µM | > 1280 * > 1280 µM | > 1280 * > 1280 µM | 0.0025 | 1.24 | 158 ± 19.8 | 1.16 | Minimal bactericidal concentration (*MBC) ([2]; 99.9% reduction): 640 * > 640 µM; Minimal inhibitory concentration (MIC) [2, 15]: 640 * > 640 µM; reduced adhesion to polystyrene [14]: 82%; reduction of adhesion to glass [11]: approximately 20%; Number of colonies ([12]; ½ MIC): 147.5 ± 21.9; Mutagenicity index ([13]; ¼ MIC): 0.73; Number of colonies ([13]; ¼ MIC): 18.7 ± 6.4; Mutagenicity index ([13]; ½ MIC): 0.84 |
| CCCCCCCCCCCCCCN(C)CCC[N+](C)(C)C.COC(=O)[O-] [MeC14, [(3-tetradecyilomethyloamine)propyl] trimethylammonium methylcarbonate] | 40 *40 µM | 40 *40 µM | 40 *40 µM | 40 *40 µM | 80 *80 µM | 80 *80 µM | 80 *80 µM | 80 *80 µM | 320 *320 µM | 320 *320 µM | 80 *80 µM | 80 *80 µM | 1280 * > 1280 µM | 1280 * > 1280 µM | > 1280 * > 1280 µM | > 1280 * > 1280 µM | 0.0041 | 1.17 | 329.5 ± 20.5 | 1.10 | MBC ([2]; 99.9% reduction, read-out: Minimal bactericidal concentration (*MBC)): 160 µM; MIC [2, 16]: 80 µM; MIC [7, 16]: 80 µM; Number of colonies ([12]; ½ MIC): 310 ± 17.3; Mutagenicity index ([13]; ¼ MIC): 0.57; Number of colonies ([13]; ¼ MIC): 13 ± 2.8; Mutagenicity index ([13]; ½ MIC): 0.95; Number of colonies ([13]; ½ MIC): 21.7 ± 3.5 |
